Measured values: patent US20180117171A1, “IMMUNOCONJUGATES FOR PROGRAMMING OR REPROGRAMMING OF CELLS” (President and Fellows of Harvard College, priority 2015, published 2018)
Where no end group is shown, it is not given here.

Columns and labels:
BMDC [1] = test: MHC II and co-stimulatory molecule surface presentation on BMDC after LPS; assay type: cell-based, mouse; details: 100 nM compound, next day 50 ng/ml LPS; mean ± SD
Protocol: Day 9 BMDC were harvested from 100 mm diameter plates and seeded into 6 wells of a tissue culture plate in R10 media containing 100 nM dexamethasone or dexamethasone-[…] […] The BD LSR Fortessa was used to analyze the cells. Histograms were created using Flowjo (Tree Star Inc.) and statistical analysis was done using InStat (GraphPad Software).

Jaws II cells = test: transwell migration of Jaws II DC; assay type: cell-based; details: 10^−6 or 10^−7 M dexamethasone
[2] = test system: primary bone marrow dendritic cells (BMDC); test: dexamethasone effect on surface markers of bone marrow dendritic cells (FACS); assay type: cell-based, mouse
Protocol: Flow cytometry was conducted according to standard protocols. Cells were harvested, washed, and resuspended to a final cell concentration of 1-5 million cells/ml in ice cold phosphate buffered saline (PBS) with 10% fetal bovine serum (FBS) and 1% sodium azide. Anti-mouse antibodies including anti-CD11c, MHC II, CD80, CD86, and OVA 257-264 bound to H-2Kb were then aliquotted according to the manufacturer's recommended dilutions (Ebioscience). During staining, cells were incubated for 20 minutes at room temperature and then 20 minutes on ice. The cells were then washed and kept on ice until analysis. Some samples were fixed in 1% paraformaldehyde (PFA) for later flow cytometric studies. Flow cytometry was conducted on the BD LSR II or the BD Fortessa. Analysis was done using Flowjo (Tree Star Inc.).
The listed concentrations of dexamethasone were added on day 6 and day 8. For the lipopolysaccharide (LPS) condition, LPS was added to a concentration of 50 ng/ml on day 9. […] “LPS” samples had LPS, but no dexamethasone.
For these studies, dexamethasone was added on day 6 and day 8. LPS was added to a concentration of 50 ng/ml on day 9. […] “LPS” samples had LPS, but no dexamethasone.

BMDC [3] = test: IL-12p70 elaboration from BMDC (ELISA); details: 100 nM, LPS 50 ng/ml
[4] = test system: CD4+ T cells from OT-II mice; test: CD4 T cell proliferation with peptide-MPS stimulated BMDCs; assay type: cell-based; details: compared to peptide stimulation only
Text: FIG. 54A-C are a set of graphs showing the effect of peptide-MPS conjugates on CD4 T cell proliferation, as evaluated in vitro. BMDCs were stimulated with […] (peptide) (SEQ ID NO: 19), […] (SEQ ID NO: 19) conjugated to MPS through SMCC (SMCC), and […] BMDCs were then washed thoroughly and co-cultured with CD4^+ T cells from OT-II mice. OT-II mice are enriched for CD4^+ T cells recognizing the […] (SEQ ID NO: 20) peptide.

JAWSII DCs = test: GM-CSF effects on JAWSII DC recruitment, proliferation, emigration and activation in vitro; assay type: cell-based
Protocol: FIGS. 3A-C are graphs and FIG. 3D is a set of images showing data related to the concentration dependent effects of GM-CSF on DC proliferation, recruitment, activation and emigration in vitro. […] Migration counts measured at 12 hours. (3B) is the effects of GM-CSF concentration on the proliferation of JAWSII DCs. 0 (white bar), 50 (grey bar), and 500 ng/ml (black bar) of GM-CSF. […] Migration counts taken at 6 hours. (3D) are representative photomicrographs of TNF-α and LPS stimulated JAWSII DCs cultured in 5-50 or 500 ng/ml GM-CSF and stained for the activation markers MHCII and CCR7. Scale bar in (3D)—20 μm. Values in (3A-3C) represent mean and standard deviation (n=4); * P<0.05; ** P<0.01
High concentrations (>100 ng/ml) of GM-CSF, however, inhibited DC migration toward the LN-derived chemokine CCL19 (FIG. 3C).

CD11c(+)CD86(+) DCs = test: in vivo DC recruitment to subcutaneous GM-CSF loaded polymers; set-up: species or system C57BL/6J mice
Text: (§1) FIGS. 4A-F are graphs and images showing data on the in vivo control of DC recruitment and programming. […] Numbers in FACS plots indicate the percentage of the cell population positive for both markers. (4D) is the percentage of total cells that were positive for the DC markers CD11c and CD86, in blank (-∘-) and GM-CSF (-•-) loaded polymers as a function of time post implantation. (4E) The total number of DCs isolated from blank (-∘-) and GM-CSF (-•-) loaded polymers as a function of time post implantation. (4F) The fractional increase in CD11c(+)CD86(+) DCs isolated from polymers at day-14 after implantation in response to doses of 1000, 3000 and 7000 ng of GM-CSF as compared to the control. Scale bar—500 μm. Values in 4A, 4D, 4E, and 4F represent mean and standard deviation (n=4 or 5); * P<0.05; ** P<0.01.
(§2) The polymer delivery vehicle presents GM-CSF in a defined spatiotemporal manner in vivo, following introduction into the tissue of interest. Exemplary vehicle quickly release approximately 60% of the bioactive GM-CSF load within the first 5 days, followed by slow and sustained release of bioactive GM-CSF over the next 10 days (FIG. 4A), to allow diffusion of the factor through the surrounding tissue and effectively recruit resident DCs. Polymers were loaded with 3 μg of GM-CSF and implanted into the dorsal subcutaneous site of C57BL/6J mice. […]

[5] = test system: bone marrow derived murine dendritic cells; test: chemokinesis of bone marrow dendritic cells toward alginate gels, time-lapse imaging; assay type: cell-based; details: alginate gel with GM-CSF, cells followed for 8 hours
Protocol: GM-CSF enhanced chemokinesis of bone marrow dendritic cells in vitro. Alginate gels with or without GM-CSF ([…]) were placed in a petri dish and surrounded with collagen containing bone marrow derived murine dendritic cells (FIG. 14A). The cells were followed for 8 hours using time-lapse imaging. The velocity of the cells was calculated from initial and final position values and is plotted in FIGS. 14B and C in μm/min. Chemotaxis toward the alginate is given as the positive x coordinate (positive x is directed radially inward). Each dot reflects the velocity of 1 cell, and each plot is representative of three experiments. The average migration speed of cells in the presence of GM-CSF was 3.1 μm/min compared to 1.1 μm/min in the absence of GM-CSF.

[6] = release profile of GM-CSF from polymer delivery vehicle; assay type: physicochemical; details: within the first 5 days
Text: as §1, §2

[7] = test system: mononuclear cells isolated from the bone marrow; test: DC induced in vitro from bone marrow cells with GM-CSF with or without TSLP, VIP or TGF-β; assay type: cell-based, C57BL/6 mice; details: for CD11c+/CD86+ in total BM cells: 7 day incubation; for expression of IL-6 and IL-12: GM-CSF in the presence of factor, bacterial stimulation, compared to GM-CSF alone
Text: The surface phenotypes of CD11c+DC in the BM culture were monitored by flow cytometry and the proportionality of each phenotype is expressed as a percent (%) of the total mononuclear cells (MNC) (FIG. 5, Table 1).
The present invention provides for a material-based local application of GM-CSF with appropriate DC influencing factors that leads to tolerogenic DCs (tDCs), and subsequent enrichment of iTreg cells. Candidate biofactors include thymic stromal lymphopoietin (TSLP), vasoactive intestinal peptide (VIP), and transforming growth factor-beta (TGF-β). Screening is based on the induced DC's anti-inflammatory properties. […] Overall, these observations that the combination of GM-CSF with TSLP efficiently induces DC with an anti-inflammatory phenotype.

B3Z T cell line [8] = test: B3Z cell: DC co-culture, CPRG assay; assay type: cell-based; details: antigen concentrations greater than 10 nM
Protocol: (§3) 15 hours later, the cells were fixed and stained with X-gal (Imgenix) according to the manufacturer's instructions. The cells were photographed at 10× magnification using a standard bright field microscope. A similar protocol was followed for the chlorophenol […] staining assay (Imgenix), except that after 15 hours, the cells were washed and lysed in a chlorophenol red-β-D-galactopyranoside staining buffer. After a 4 hour incubation at 37° C., the absorbance at 590 nm was obtained.
The cells were then lysed and treated with the β-galactosidase substrate, chlorophenol red-β-D-galactopyranoside (CPRG). After 4 hours of incubation, the absorbance at 590 nm was obtained. Staining was due to β a-galactosidase expression driven by elements of the IL-2 promoter.

B3Z T cell line [9] = test: B3Z cell: DC co-culture, X-gal assay; assay type: cell-based
Protocol: as §3
Following a 15 hour co-culture, the cells were fixed, stained with X-gal, and imaged. The images were all obtained at 10× magnification and represent a typical distribution of cells (FIG. 29).

[10] = test system: bone marrow derived dendritic cells (BMDCs); test: antigen presentation of […]-MPS conjugate by BMDCs (flow cytometry); assay type: cell-based; details: 18 hours, versus peptide adsorbed to MPS
Text: FIG. 53 is a pair of graphs evaluating the antigen presentation of […] (SEQ ID NO: 18)-MPS conjugate. […] Percentage of BMDCs presenting the peptide was quantified using flow cytometry.

## C[C@@H]1C[C@H]2[C@@H]3CCC4=CC(=O)C=C[C@]4(C)[C@@]3(F)[C@@H](O)C[C@]2(C)[C@@]1(O)C(=O)CO [dexamethasone]
BMDC [1]
  MFI CD80: 3100 ± 100^δ
  MFI CD86: 2050 ± 5^β
  MFI MHC II: 540 ± 20^α
Jaws II cells
  number of cells that migrated to CCL20 relative to control: approximately 1.8 fold
[2]; LPS treated
  dexamethasone concentrations with MHC II, CD80, CD86 staining reduced compared to LPS positive control: greater than or equal to 10^−8 M
[2]; immature BMDC cultures
  dexamethasone concentrations that reduced CD11c expression: ≥ 10^−8 M
[2]; mature DC treated with LPS 50 ng/ml
  dexamethasone concentration at which inhibition of CD11c+ staining begins: around 10^−8 M
BMDC [3]
  reduction of IL-12 elaboration from BMDC, factor: ~4

## CISQAVHAAHAEINEAGR (SEQ ID NO: 19) conjugated to MPS through SMCC: ovalbumin CD4 epitope conjugated to MPS through stable SMCC linker (also: conjugated to MPS via SMCC linker)
[4]
  CD4 T cell proliferation: significantly higher T cell proliferation

## CISQAVHAAHAEINEAGR (SEQ ID NO: 19) conjugated to MPS through SPDP: ovalbumin CD4 epitope conjugated to MPS through reducible SPDP linker (also: conjugated to MPS via SPDP linker)
[4]
  CD4 T cell proliferation: significantly higher T cell proliferation

## GM-CSF
JAWSII DCs; high concentrations of GM-CSF
  DC activation via TNF-α and LPS stimulation (MHCII, CCR7 expression): suppressed DC activation
JAWSII DCs; in vitro
  DC recruitment and proliferation: enhanced DC recruitment and proliferation in a dose-dependent manner
JAWSII DCs; transwell
  GM-CSF concentrations that inhibited DC migration toward CCL19: > 100 ng/mL
CD11c(+)CD86(+) DCs; 3 μg GM-CSF loaded polymers
  CD11c(+)CD86(+) DCs by FACS: increased not just the total cell number, but also the percentage of infiltrating cells that were DCs
CD11c(+)CD86(+) DCs; 3 μg GM-CSF, day-14, compared to control
  total cellular infiltration at the site: significantly enhanced
[5]
  average migration speed of cells: 3.1 μm/min
[6]
  bioactive GM-CSF load released: approximately 60%
[7]
  CD11c+/CD86+ in total BM cells: 14.7%

## SIINFEKL (Exemplary ovalbumin peptide.)
B3Z T cell line [8]
  CPRG hydrolysis versus dexamethasone-SIINFEKL groups: greater CPRG hydrolysis
B3Z T cell line [9]; 0.05 μM peptide
  X-gal staining of B3Z cells: many positive cells
B3Z T cell line [9]; 1.0 μM peptide
  X-gal staining of B3Z cells: numerous positive cells

## SPDP CSIINFEKL (SEQ ID NO: 18)-MPS: ovalbumin CD8 epitope CSIINFEKL conjugated to MPS through reducible SPDP linker (also: SPDP linker to MPS)
[10]; 10 nM
  BMDCs presenting the peptide: significantly better presented
[10]; 100 nM
  BMDCs presenting the peptide: comparable levels

## TGF-β
[7]
  CD11c+/CD86+ in total BM cells: 10.5%
  expression of IL-6 and IL-12: diminished expression

## TSLP: thymic stromal lymphopoietin
[7]
  expression of IL-6 and IL-12: diminished expression

## VIP: vasoactive intestinal peptide (HSDAVFTDNYTRLRKQMAVKKYLNSILN; ends and bridges not checked; UniProt P01282 125-152, looked up)
[7]
  expression of IL-6 and IL-12: diminished expression
[7]; GM-CSF plus factor (100 ng/ml), 7 days, bacterial challenge
  IL-10 production by induced DC: did not up-regulate
